From BigSolDB 2.1

O=c1c(O)c(-c2ccc(O)c(O)c2)oc2cc(O)cc(O)c12
solubility (mole fraction)
Conditions | 292.8 K | 298.6 K | 303.2 K | 308.6 K | 314.1 K | 318.8 K | 322.2 K | 325.6 K | 331.2 K | 333.8 K
in ethanol | 0.00135 | 0.00153 | 0.00165 | 0.00178 | 0.00193 | 0.00207 | 0.00218 | 0.0023 | 0.0025 | 0.00255
in methanol | 0.000845 | 0.000919 | 0.000957 | 0.00104 | 0.00113 | 0.00127 | 0.00133 | 0.00142 | 0.00159 | 0.00163
in water | 5.04e-05 | 5.51e-05 | 5.85e-05 | 6.18e-05 | 6.53e-05 | 6.7e-05 | 6.91e-05 | 7.13e-05 | 7.38e-05 | 7.53e-05
